Here are results for 19 molecules from patent US11117883B2 (Ariad Pharmaceuticals, Inc., priority 2016, dated 2021).

Where only a bound is given, the exact number is not on record here.

Experiment in all cases: c-Kit assay: Ba/F3 KIT mutant viability (Cell Titer-Glo, 72 hours)
Assay type in all cases: cell-based
(ATP-based viability assays read luminescence as a measure of living cells.)

The target of experiment [1] is T1, BAF3 FL KIT EX11DEL (Homo sapiens, UniProt P10721, cells depend on it, form not given).
T1 construct: "BAF3 FL KIT EX11DEL"
T1 sequence (P10721 with tags, fused parts or gaps DEL557-558): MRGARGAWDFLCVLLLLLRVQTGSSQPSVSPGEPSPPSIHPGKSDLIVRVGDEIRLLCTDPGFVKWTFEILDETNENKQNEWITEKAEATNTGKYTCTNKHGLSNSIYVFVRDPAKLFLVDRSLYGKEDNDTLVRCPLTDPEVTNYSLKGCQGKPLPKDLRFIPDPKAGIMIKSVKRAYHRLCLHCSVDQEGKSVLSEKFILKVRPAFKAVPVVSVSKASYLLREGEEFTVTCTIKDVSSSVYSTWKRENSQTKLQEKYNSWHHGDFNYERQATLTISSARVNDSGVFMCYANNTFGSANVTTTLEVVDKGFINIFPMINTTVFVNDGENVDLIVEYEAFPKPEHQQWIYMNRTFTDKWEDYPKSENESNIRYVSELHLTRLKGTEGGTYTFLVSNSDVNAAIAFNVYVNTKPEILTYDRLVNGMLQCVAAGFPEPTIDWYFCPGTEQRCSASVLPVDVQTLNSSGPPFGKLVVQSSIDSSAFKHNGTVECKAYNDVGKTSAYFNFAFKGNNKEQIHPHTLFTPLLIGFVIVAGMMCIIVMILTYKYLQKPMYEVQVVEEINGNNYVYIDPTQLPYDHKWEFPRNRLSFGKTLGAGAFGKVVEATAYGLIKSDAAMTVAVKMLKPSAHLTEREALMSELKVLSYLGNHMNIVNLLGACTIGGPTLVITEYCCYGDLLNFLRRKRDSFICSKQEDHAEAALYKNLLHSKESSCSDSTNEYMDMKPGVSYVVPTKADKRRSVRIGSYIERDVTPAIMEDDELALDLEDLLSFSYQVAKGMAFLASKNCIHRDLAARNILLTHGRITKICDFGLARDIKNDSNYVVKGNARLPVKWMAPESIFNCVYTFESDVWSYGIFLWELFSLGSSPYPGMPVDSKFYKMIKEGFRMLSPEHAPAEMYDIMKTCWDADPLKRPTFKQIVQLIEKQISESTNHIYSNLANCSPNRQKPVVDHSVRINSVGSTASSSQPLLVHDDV
Particulars: viability after 72 hours. The procedure: (§1) KIT cDNAs were synthesized by GenScript and cloned into the pLVX-IRES-Puro vector (Clontech). Viral particles were produced by transfecting pLVX-IRES-puro vectors containing KIT mutant genes into HEK293 cells (Invitrogen) using the Trans-Lentiviral ORF Packaging Kit (Thermo Scientific). 48 hours post-transfection, virus-containing supernatants were harvested and incubated for another 48-72 hours with parental Ba/F3 cells (DSMZ) in the presence of 10 ng/mL […] (R&D Systems). Transduced Ba/F3 cells were then selected by IL-3 withdrawal and puromycin (0.5-1 μg/mL, Invitrogen).
(§2) Cell lines (i.e., EX11DEL, EX11DEL/D816H, EX11DEL/T670I, and EX11DEL/V654A) were plated into 384 well plates using RPMI 1640 supplemented with 10% FBS at densities that produced linear growth and incubated at 37° C. in 5% (v/v) CO2. Cells were treated with eight concentrations of compound over a 4-fold dilution (10 μM to 0.61 nM) and viability was assessed using Cell Titer-Glo assay (Promega) after 72 hours. Data were plotted as percent viability relative to vehicle-treated cells. Dose-responses curves were generated and used to calculate IC50 values.

Experiment [2] has as its target T2, BAF3 FL KIT EX11DEL/D816H (Homo sapiens, UniProt P10721, D816H, cells depend on it, form not given).
T2 construct: "BAF3 FL KIT EX11DEL/ D816H"
Particulars: viability after 72 hours. The procedure: as §1, §2

The target of experiment [3] is T3, BAF3 FL KIT EX11DEL/T6701 (Homo sapiens, UniProt P10721, T670I, cells depend on it, form not given).
T3 construct: "BAF3 FL KIT EX11DEL/ T6701"
T3 sequence (P10721 with tags, fused parts or gaps DEL557-558/T670I, form open): as the sequence (P10721 with tags, fused parts or gaps DEL557-558) above, with T668I counted along it
To be noted: EX11DEL/T6701, viability after 72 hours. The procedure: as §1, §2

For experiment [4], the target named is T4, BAF3 FL KIT EX11DEL/V654A (Homo sapiens, UniProt P10721, V654A, cells depend on it, form not given).
T4 construct: "BAF3 FL KIT EX11DEL/ V654A"
T4 sequence (P10721 with tags, fused parts or gaps DEL557-558/V654A, form open): as the sequence (P10721 with tags, fused parts or gaps DEL557-558) above, with V652A counted along it
To be noted: viability after 72 hours. The procedure: as §1, §2

T2 sequence (P10721 with tags, fused parts or gaps DEL557-558/D816H, form open): as the sequence (P10721 with tags, fused parts or gaps DEL557-558) above, with D814H counted along it

`Cc1ccc(C(=O)Nc2cc(C(F)(F)F)ccn2)cc1C#Cc1ccc2c(c1)ncn2Cc1cccnc1` [Compound I-12, 4-methyl-3-((1-(pyridin-3-ylmethyl)-1H-benzo[d]imidazol-5-yl)ethynyl)-N-(4-(trifluoromethyl)pyridin-2-yl)benzamide]: the 50% growth inhibitory concentration (GI50) in experiment [1] lay in the range of 0.01 to 0.05 µM; in experiment [2], 0.1 to 10 µM; in experiment [3], 0.1 to 10 µM; in experiment [4], 0.1 to 10 µM.

For the molecule `COCCn1cc(-n2cnc3cc(C#Cc4cc(C(=O)Nc5cc(C(F)(F)F)ccn5)ccc4C)ccc32)cn1` [Compound I-32, 3-((1-(1-(2-methoxyethyl)-1H-pyrazol-4-yl)-1H-benzo[d]imidazol-5-yl)ethynyl)-4-methyl-N-(4-(trifluoromethyl)pyridin-2-yl)benzamide], the concentration for 50% growth inhibition (GI50) was less than 0.01 µM in experiment [1], 0.01 to 0.05 µM in experiment [2], less than 0.01 µM in experiment [3] and 0.01 to 0.05 µM in experiment [4].

Turning to `Cc1ccc(C(=O)Nc2cc(C(F)(F)F)ccn2)cc1C#Cc1ccc2c(c1)ncn2-c1cn[nH]c1` [Compound I-35, 3-((1-(1H-pyrazol-4-yl)-1H-benzo[d]imidazol-5-yl)ethynyl)-4-methyl-N-(4-(trifluoromethyl)pyridin-2-yl)benzamide], the GI50 in experiment [1] is less than 0.01 µM; in experiment [2], 0.01 to 0.05 µM; in experiment [3], 0.01 to 0.05 µM; in experiment [4] it was 0.01 to 0.05 µM.

As to `Cc1ccc(C(=O)Nc2cc(C(F)(F)F)ccn2)cc1C#Cc1ccc2c(c1)ncn2-c1cnn(C)c1` [Compound I-19, 4-methyl-3-((1-(1-methyl-1H-pyrazol-4-yl)-1H-benzo[d]imidazol-5-yl)ethynyl)-N-(4-(trifluoromethyl)pyridin-2-yl)benzamide], the concentration for 50% growth inhibition (GI50) is less than 0.01 µM in experiment [1], 0.01 to 0.05 µM in experiment [2], less than 0.01 µM in experiment [3] and 0.01 to 0.05 µM in experiment [4].

Take `Cc1ccc(C(=O)Nc2cc(C(F)(F)F)ccn2)cc1C#Cc1ccc2c(c1)ncn2-c1cnn(C2CCN(C)CC2)c1` [Compound I-27, 4-methyl-3-((1-(1-(1-methylpiperidin-4-yl)-1H-pyrazol-4-yl)-1H-benzo[d]imidazol-5-yl)ethynyl)-N-(4-(trifluoromethyl)pyridin-2-yl)benzamide]: the GI50 was less than 0.01 µM in experiment [1], 0.01 to 0.05 µM in experiment [2], 0.01 to 0.05 µM in experiment [3] and 0.01 to 0.05 µM in experiment [4].

For `Cc1ccc(NC(=O)c2ccc(CN3CCOCC3)c(C(F)(F)F)c2)cc1C#Cc1ccc2c(c1)ncn2-c1cnn(C)c1` [Compound I-48, N-(4-methyl-3-((1-(1-methyl-1H-pyrazol-4-yl)-1H-benzo[d]imidazol-5-yl)ethynyl)phenyl)-4-(morpholinomethyl)-3-(trifluoromethyl)benzamide], the GI50 is less than 0.01 µM in experiment [1], 0.05 to 0.1 µM in experiment [2], 0.01 to 0.05 µM in experiment [3] and 0.05 to 0.1 µM in experiment [4].

As for `Cc1ccc(C(=O)Nc2cc(C(F)(F)F)ccn2)cc1C#Cc1ccc2ncn(C)c2c1` [Compound I-11, 4-methyl-3-((1-methyl-1H-benzo[d]imidazol-6-yl)ethynyl)-N-(4-(trifluoromethyl)pyridin-2-yl)benzamide], the GI50 in experiment [1], in experiment [2], in experiment [3] and in experiment [4] was 0.1 to 10 µM throughout.

For the molecule `CNC(=O)Cn1cnc2cc(C#Cc3cc(C(=O)Nc4cc(C(F)(F)F)ccn4)ccc3C)ccc21` [Compound I-1, 4-Methyl-3-((1-(2-(methylamino)-2-oxoethyl)-1H-benzo[d]imidazol-5-yl)ethynyl)-N-(4-(trifluoromethyl)pyridin-2-yl)benzamide], the GI50 is less than 0.01 µM in experiment [1], 0.1 to 10 µM in experiment [2], 0.1 to 10 µM in experiment [3] and 0.1 to 10 µM in experiment [4].

Regarding `Cc1ccc(C(=O)Nc2cc(C(F)(F)F)ccn2)cc1C#Cc1ccc2c(c1)ncn2-c1cn(C2CCN(C)CC2)cn1` [Compound I-34, 4-methyl-3-((1-(1-(1-methylpiperidin-4-yl)-1H-imidazol-4-yl)-1H-benzo[d]imidazol-5-yl)ethynyl)-N-(4-(trifluoromethyl)pyridin-2-yl)benzamide], the GI50 was less than 0.01 µM in experiment [1], 0.1 to 10 µM in experiment [2], 0.01 to 0.05 µM in experiment [3] and 0.1 to 10 µM in experiment [4].

For the molecule `Cc1ccc(C(=O)Nc2ccc(C#N)c(C(F)(F)F)c2)cc1C#Cc1ccc2c(c1)ncn2-c1ccn(C)n1` [Compound I-37, N-(4-cyano-3-(trifluoromethyl)phenyl)-4-methyl-3-((1-(1-methyl-1H-pyrazol-3-yl)-1H-benzo[d]imidazol-5-yl)ethynyl)benzamide], the concentration for 50% growth inhibition (GI50) in experiment [1] was less than 0.01 µM; in experiment [2], 0.01 to 0.05 µM; in experiment [3], 0.01 to 0.05 µM; in experiment [4], 0.05 to 0.1 µM.

`Cc1ccc(C(=O)Nc2cc(C(F)(F)F)ccn2)cc1C#Cc1ccc2c(c1)ncn2CCN(C)C` [Compound I-3, 3-((1-(2-(dimethylamino)ethyl)-1H-benzo[d]imidazol-5-yl)ethynyl)-4-methyl-N-(4-(trifluoromethyl)pyridin-2-yl)benzamide]: the GI50 lay within 0.05 to 0.1 µM in experiment [1], 0.1 to 10 µM in experiment [2], 0.1 to 10 µM in experiment [3] and 0.1 to 10 µM in experiment [4].

As for `Cc1ccc(C(=O)Nc2cc(C(F)(F)F)ccn2)cc1C#Cc1ccc2c(c1)ncn2CCCN(C)C` [Compound I-6, 3-((1-(3-(dimethylamino)propyl)-1H-benzo[d]imidazol-5-yl)ethynyl)-4-methyl-N-(4-(trifluoromethyl)pyridin-2-yl)benzamide], the GI50 in experiment [1] was 0.01 to 0.05 µM; in experiment [2], 0.1 to 10 µM; in experiment [3], 0.05 to 0.1 µM; in experiment [4], 0.1 to 10 µM.

Consider `Cc1ccc(NC(=O)c2cc(C(F)(F)F)ccn2)cc1C#Cc1ccc2c(c1)ncn2-c1cnn(C2CCN(C)CC2)c1` [Compound I-40], for which the concentration for 50% growth inhibition (GI50) in experiment [1] was less than 0.01 µM; in experiment [2] it was 0.1 to 10 µM; in experiment [3], 0.01 to 0.05 µM; in experiment [4], 0.1 to 10 µM.

For `Cc1ccc(NC(=O)c2cc(C(F)(F)F)ccn2)cc1C#Cc1ccc2c(c1)ncn2C` [Compound I-45, N-(4-methyl-3-((1-methyl-1H-benzo[d]imidazol-5-yl)ethynyl)phenyl)-4-(trifluoromethyl)picolinamide], the GI50 fell in the range of 0.01 to 0.05 µM in experiment [1], 0.05 to 0.1 µM in experiment [2], 0.01 to 0.05 µM in experiment [3] and 0.05 to 0.1 µM in experiment [4].

Regarding `Cc1ccc(C(=O)Nc2cc(C(F)(F)F)ccn2)cc1C#Cc1ccc2c(c1)ncn2-c1cn(C)nn1` [Compound I-24, 4-methyl-3-((1-(1-methyl-1H-1,2,3-triazol-4-yl)-1H-benzo[d]imidazol-5-yl)ethynyl)-N-(4-(trifluoromethyl)pyridin-2-yl)benzamide], the GI50 in experiment [1] was less than 0.01 µM; in experiment [2], 0.01 to 0.05 µM; in experiment [3] it was less than 0.01 µM; in experiment [4] it was 0.01 to 0.05 µM.

With `Cn1cc(-n2cnc3cc(C#Cc4cc(NC(=O)c5cc(C(F)(F)F)ccn5)ccc4F)ccc32)cn1` [Compound I-52, N-(4-fluoro-3-((1-(1-methyl-1H-pyrazol-4-yl)-1H-benzo[d]imidazol-5-yl)ethynyl)phenyl)-4-(trifluoromethyl)picolinamide], the GI50 was less than 0.01 µM in experiment [1], 0.1 to 10 µM in experiment [2], less than 0.01 µM in experiment [3] and 0.05 to 0.1 µM in experiment [4].

Consider `Cn1cc(-n2cnc3cc(C#Cc4cc(C(=O)Nc5cc(C(F)(F)F)ccn5)ccc4F)ccc32)cn1` [Compound I-51, 4-fluoro-3-((1-(1-methyl-1H-pyrazol-4-yl)-1H-benzo[d]imidazol-5-yl)ethynyl)-N-(4-(trifluoromethyl)pyridin-2-yl)benzamide], for which the GI50 was less than 0.01 µM in experiment [1], 0.1 to 10 µM in experiment [2], less than 0.01 µM in experiment [3] and 0.01 to 0.05 µM in experiment [4].

`Cc1ccc(C(=O)Nc2cc(C(F)(F)F)ccn2)cc1C#Cc1ccc2c(c1)ncn2C` [Compound I-8, 4-methyl-3-((1-methyl-1H-benzo[d]imidazol-5-yl)ethynyl)-N-(4-(trifluoromethyl)pyridin-2-yl)benzamide]: the GI50 fell in the range of 0.01 to 0.05 µM in experiment [1], 0.05 to 0.1 µM in experiment [2], 0.01 to 0.05 µM in experiment [3] and 0.01 to 0.05 µM in experiment [4].

As to `Cc1ccc(NC(=O)c2cc(C(F)(F)F)ccn2)cc1C#Cc1ccc2c(c1)ncn2-c1cn[nH]c1` [Compound I-43, N-(3-((1-(1H-pyrazol-4-yl)-1H-benzo[d]imidazol-5-yl)ethynyl)-4-methylphenyl)-4-(trifluoromethyl)picolinamide], the GI50 is less than 0.01 µM in experiment [1], 0.05 to 0.1 µM in experiment [2], 0.05 to 0.1 µM in experiment [3] and 0.1 to 10 µM in experiment [4].

The GI50 is the concentration at which growth is held to half of that of the control. A high value points to lower sensitivity of the cells.
